The test system of the assay is HCV IRES. The assay is described as follows: HCV IRES reporter FACS assay (GFP expression ratio, intein-expressed cyclic peptides). Conditions: ratio at least 1.20 = significant activity. Type of assay: cell-based, Hepatitis C virus. The text has this:
[The source words this procedure for another variant and says it was used here with some conditions changed.] Cells producing libraries of cyclic 3-mers and 4-mers (i.e., libraries of cyclic peptides that contain 3 or 4 amino acid residues) were constructed using methods identical to those of Kinsella et al (J Biol. Chem. 2002 277:37512-8), except different oligonucleotides were used for library construction. Clones from this library were screened in an assay shown in FIG. 2 to identify IRES-inhibitory compounds.
In summary, separate cyclic 3-mer and cyclic 4-mer libraries were constructed such that each peptide of the library contained a fixed Ser, Thr or Cys residue (at position 1) and the remaining residues were randomized. For library construction, degenerate oligonucleotides of sequence 5′-[…](AGC/ACC/TGC)(NNK)2 or 3 TGCATCAGCGGCGACAG-3′ were annealed to the primer 5′-[…]-3′ and extended using the Expand PCR kit (Roche Molecular Biochemicals). The double-stranded DNA insert was digested and inserted into the BclI/DrdI sites of DnaBO-e-BFP (ACUC). The plasmid libraries were electroporated into ElectroMAX DH 10B competent E. coli (Invitrogen) for amplification on LB+amp agar medium. […] Expression of the intein is detected by detecting BFP expression. Expression of the intein (and the cyclic peptide produced by the intein) is suppressible by addition of exogenous doxycycline. The amino acid sequence of the junctions of the intein scaffold used in making the 3-mer library is Val-His-Asn-X3 or 4-Cys-Ile-Ser, where X3 or 4 are three or four contiguous amino acids.
Infectious retroviral particles were produced by transfection of 15 µg of each library (as described in Swift et al, (1999). Current Protocols in Immunology Vol. 10.17C, pp. 1-17, Freeman, N.Y.) into approximately 5×10^6 Phoenix-A packaging cells. Each resulting library of retroviral particles was then used to infect 5×10^6 BJAB-S3A11 reporter cells and a FACS based selection was carried out to isolate cells with reduced HCV-IRES reporter output.
In detail, referring to FIG. 2, the cells used in the assay contained an IRES-dependent reporter system. […]. Also present in the cells is a control reporter system for assaying the activity of 5′ cap-dependent translation (the mechanism by which most cellular proteins are normally translated). The control reporter system contains a CMV promoter that drives the transcription of an RNA containing 5′ cap-dependent UTR, operably linked to an RNA encoding RFP (red fluorescent protein). Translation of RFP is dependent on the activity of the 5′ cap-dependent UTR.
Cells containing both the cyclic compound library and the reporter systems described above were first screened for survival upon exposure to diptheria toxin, and then screened by FACS to identify cells that had reduced GFP expression, as compared to RFP expression. Cells were expanded and replica-plated and grown in the presence or absence of dox (100 ng/ml) for four days. Plates were stimulated with IL-4 and GFP expression (relative to RFP) was monitored by flow cytometry. The IRES-inhibitory activity of a peptide is evaluated by calculating the ratio of the geometric mean of GFP expression of peptide positive cells (“peptide pos+” cells i.e., cells not contacted with dox) to the geometric mean of GFP expression of peptide negative cells (“peptide pos−” cells i.e., cells contacted with dox).
Cyclic peptides assigned higher scores have a greater IRES-inhibitory activity.
The number shown in parentheses after each of the amino acid sequences is the IRES-inhibitory activity ratio, as discussed above.
Background: Flow cytometry measures light scatter and fluorescence of single cells or particles in a stream.

[1] abbreviates: BJAB-S3A11 reporter cells, +/- dox 100 ng/ml four days, library intein junction Val-His-Asn-X1X2X3-Cys-Ile-Ser.
Where [2] appears, read: 3-mers from mutant intein scaffold, junction Val-His-Asn-X1X2X3-Trp-Ile-Ser.

Consider 15 compounds from patent US20060116316A1, “Heterocyclic inhibitors of IRES-mediated translation and methods of use thereof” (priority 2004, published 2006).

Each structure is given as a SMILES string. Where a SMILES comes first, the peptide text is derived from it.

On to `CC(C)[C@@H]1NC(=O)[C@H](CO)NC(=O)[C@H](Cc2c[nH]c3ccccc23)NC1=O` [cyclo-SVW, cyclo[SVW]] (cyclo(Ser-Val-Trp)), for which the “IRES-inhibitory activity ratio (geometric mean GFP expression, peptide positive cells / peptide negative cells)” value under setting [1] turned out to be 1.3.

As for `CSCC[C@@H]1NC(=O)[C@H]([C@@H](C)O)NC(=O)[C@H](Cc2c[nH]c3ccccc23)NC1=O` [cyclo-TMW, cyclo[TMW]] (cyclo(Met-Trp-Thr)), the “IRES-inhibitory activity ratio (geometric mean GFP expression, peptide positive cells / peptide negative cells)” value under setting [1] was 2.1.

For the compound `C[C@@H](O)[C@@H]1NC(=O)[C@H](CO)NC(=O)[C@H](Cc2c[nH]c3ccccc23)NC1=O` [cyclo-STW, cyclo[STW]] (cyclo(Ser-Thr-Trp)), the “IRES-inhibitory activity ratio (geometric mean GFP expression, peptide positive cells / peptide negative cells)” value under setting [2] is 2.12.

As to `CCC(C)[C@@H]1NC(=O)[C@H](CO)NC(=O)[C@H](C(C)C)NC1=O` (stereo partly drawn) [cyclo-SIV, cyclo[SIV]], under setting [1], the “IRES-inhibitory activity ratio (geometric mean GFP expression, peptide positive cells / peptide negative cells)” value is reported as 1.4.

On to `CSCC[C@@H]1NC(=O)[C@H](C)NC(=O)[C@H](CO)NC1=O` [cyclo-SAM, cyclo[SAM]] (cyclo(Ala-Met-Ser)), for which, where the note is “3-mers from mutant intein scaffold, junction Val-His-Tyr-X1X2X3-Cys-Ile-Ser”, the “IRES-inhibitory activity ratio (geometric mean GFP expression, peptide positive cells / peptide negative cells)” value came out at 1.36.

`O=C1CNC(=O)[C@H](CO)NC(=O)[C@H](Cc2c[nH]c3ccccc23)N1` [cyclo-SGW, cyclo[SGW]] (cyclo(Gly-Trp-Ser)): the “IRES-inhibitory activity ratio (geometric mean GFP expression, peptide positive cells / peptide negative cells)” value under setting [2] amounted to 1.94.

Consider `C[C@@H](O)[C@@H]1NC(=O)[C@H](Cc2c[nH]c3ccccc23)NC(=O)[C@H](Cc2ccccc2)NC1=O` [cyclo-TFW, cyclo[TFW]] (cyclo(Phe-Trp-Thr)), for which, under setting [1], the “IRES-inhibitory activity ratio (geometric mean GFP expression, peptide positive cells / peptide negative cells)” value worked out at 1.75.

In the case of `C[C@@H]1NC(=O)[C@H]([C@@H](C)O)NC(=O)[C@H](Cc2c[nH]c3ccccc23)NC1=O` [cyclo-TAW, cyclo[TAW]] (cyclo(Ala-Trp-Thr)), under setting [2], the “IRES-inhibitory activity ratio (geometric mean GFP expression, peptide positive cells / peptide negative cells)” value turned out to be 5.09.

Turning to `O=C1N[C@@H](Cc2ccccc2)C(=O)N[C@@H](Cc2c[nH]c3ccccc23)C(=O)N[C@H]1CO` [cyclo-SFW, cyclo[SFW]] (cyclo(Phe-Trp-Ser)), the “IRES-inhibitory activity ratio (geometric mean GFP expression, peptide positive cells / peptide negative cells)” value under setting [1] is 1.55.

Regarding `C[C@@H](O)[C@@H]1NC(=O)[C@H](Cc2c[nH]c3ccccc23)NC(=O)[C@H](CO)NC1=O` [cyclo-TSW, cyclo[TSW]] (cyclo(Ser-Trp-Thr)), the “IRES-inhibitory activity ratio (geometric mean GFP expression, peptide positive cells / peptide negative cells)” value under setting [1] is 1.25.

`C[C@@H]1NC(=O)[C@H](CO)NC(=O)[C@H](CCC(N)=O)NC1=O` [cyclo-SAQ, cyclo[SAQ]] (cyclo(Ala-Gln-Ser)): under setting [2], the “IRES-inhibitory activity ratio (geometric mean GFP expression, peptide positive cells / peptide negative cells)” value is given as 1.4.

For the compound `CCC(C)[C@@H]1NC(=O)[C@H](Cc2c[nH]c3ccccc23)NC(=O)[C@H](CO)NC1=O` (stereo partly drawn) [cyclo-SWI, cyclo[SWI]], the “IRES-inhibitory activity ratio (geometric mean GFP expression, peptide positive cells / peptide negative cells)” value under setting [1] was found to be 1.36.

As to `O=C(O)CC[C@@H]1NC(=O)[C@H](CO)NC(=O)[C@H](Cc2c[nH]c3ccccc23)NC1=O` [cyclo-SEW, cyclo[SEW]] (cyclo(Glu-Trp-Ser)), under setting [2], the “IRES-inhibitory activity ratio (geometric mean GFP expression, peptide positive cells / peptide negative cells)” value worked out at 2.00.

Regarding `O=C1N[C@@H](Cc2cnc[nH]2)C(=O)N[C@@H](Cc2c[nH]c3ccccc23)C(=O)N[C@H]1CO` [cyclo-SHW, cyclo[SHW]] (cyclo(His-Trp-Ser)), the “IRES-inhibitory activity ratio (geometric mean GFP expression, peptide positive cells / peptide negative cells)” value under setting [2] is given as 2.26.

With `CC(C)[C@@H]1NC(=O)[C@H](CO)NC(=O)[C@H](C(C)C)NC1=O` [cyclo-SVV, cyclo[SVV]] (cyclo(Ser-Val-Val)), under setting [1], the “IRES-inhibitory activity ratio (geometric mean GFP expression, peptide positive cells / peptide negative cells)” value is given as 1.64.
